The values below come from US12371454B2, “Cyclic peptide compound having Kras inhibitory action” (priority 2019, dated 2025).

Molecules are shown by their SMILES. Starred links: 1 amine or outer side, 2 acyl side, 3 side chain; linkers in the order of their positions; H or OH if unused. Positions of bridges follow the written chain, without caps; N, C: chain ends. Non-standard residues stand in square brackets, D forms with d. Residues, ends and D or L forms follow the SMILES beside them. *: point of attachment. hPhe(3-Cl-4-CF3) = N[C@@H](CCc1ccc(C(F)(F)F)c(Cl)c1)C(=O)O; NMeDab(N,N-(CH2CF2CH2)) = CN[C@@H](CCN1CC(F)(F)C1)C(=O)O; NMePhe(2-CF3) = CN[C@@H](Cc1ccccc1C(F)(F)F)C(=O)O; hPhe(4-CF3) = N[C@@H](CCc1ccc(C(F)(F)F)cc1)C(=O)O; NMeAla(4-thiazolyl) = CN[C@@H](Cc1cscn1)C(=O)O; NMePhe(4-Cl) = CN[C@@H](Cc1ccc(Cl)cc1)C(=O)O; NMePhe(4-F) = CN[C@@H](Cc1ccc(F)cc1)C(=O)O; hPhe(4-Cl) = N[C@@H](CCc1ccc(Cl)cc1)C(=O)O; NMedβ3hAla = C[C@H](CC(=O)[*:2])N(C)[*:1]; X22 = O=C([C@@H]1Cc2ccccc2N1[*:1])[*:2]; NMeGly(cPent) = CN[C@H](C(=O)O)C1CCCC1; Phe(3-I) = N[C@@H](Cc1cccc(I)c1)C(=O)O; NMeY = CN[C@@H](Cc1ccc(O)cc1)C(=O)O; NMeCha = CN[C@@H](CC1CCCCC1)C(=O)O; NMehLeu = CN[C@@H](CCC(C)C)C(=O)O; NMeChg = CN[C@H](C(=O)O)C1CCCCC1; NMeF = CN[C@@H](Cc1ccccc1)C(=O)O; NMeD = CN[C@@H](CC(=O)O)C(=O)O; NMeL = CN[C@@H](CC(C)C)C(=O)O; NMeV = CN[C@H](C(=O)O)C(C)C; Azetidin(1-yl) = C1CN(*)C1; NMeA = CN[C@@H](C)C(=O)O; Nle = CCCC[C@H](N)C(=O)O; Piperidide = C1CCN(*)CC1; Pyrrolidide = C1CCN(*)C1; Ac5c = NC1(C(=O)O)CCCC1; Aze = O=C(O)[C@@H]1CCN1; Thp = NC1(C(=O)O)CCOCC1; CF3 = FC(F)(F)*; Sar = CNCC(=O)O; Propyl = CCC*

In the assay the target is T1, Kras and SOS1 (biotin-tagged human Kras loaded with GDP, His-tagged human SOS1) (Homo sapiens, UniProt P01116, G12D).
T1 construct: made in house; host or cells: E. coli (stated for Kras only)
T1 sequence (P01116 1-188 isoform P01116-2 G12D): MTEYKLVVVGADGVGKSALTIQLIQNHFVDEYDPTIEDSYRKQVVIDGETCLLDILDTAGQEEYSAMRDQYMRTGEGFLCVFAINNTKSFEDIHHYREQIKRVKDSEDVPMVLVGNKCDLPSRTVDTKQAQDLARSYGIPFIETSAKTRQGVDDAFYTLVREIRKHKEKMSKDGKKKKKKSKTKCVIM
Kind of assay: Protein-protein interaction inhibition between Kras and SOS1 (KrasGl2D-SOS PPI) using AlphaScreen. Type of assay: binding. The following applies: AlphaScreen; biotin-tagged human Kras loaded with GDP, His-tagged human SOS1; read-out: KRAS G12D-SOS PPI IC50. In outline: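 Donor beads (nickel) hold His-SOS1; acceptor beads (streptavidin) hold biotin-Kras bound to GDP. Signal measured at 520-620 nm following 680 nm excitation.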
(In general: In Alpha technology, singlet oxygen from a donor bead excites a nearby acceptor bead.)
On to `CC[C@H](C)[C@@H]1NC(=O)[C@H](CC(C)C)N(C)C(=O)C[C@@H](C)N(C)C(=O)[C@H](CC(C)C)N(C)C(=O)C2(CCOCC2)NC(=O)[C@@H]2CCCN2C(=O)[C@H](CCc2ccc(Cl)cc2)NC(=O)CN(C)C(=O)[C@H](CC2CCCCC2)N(C)C(=O)CN(C)C(=O)CN(C)C1=O` [Compound 802] (cyclo(I[Sar][Sar][NMeCha][Sar][hPhe(4-Cl)]P[Thp][NMeL][NMedβ3hAla][NMeL])), for which the half-maximal inhibitory concentration (IC50) turned out to be 390 nM.

For the molecule `CC[C@H](C)[C@@H]1NC(=O)[C@H](CC(C)C)N(C)C(=O)C[C@@H](C(=O)N(C)C)N(C)C(=O)[C@H](C2CCCC2)N(C)C(=O)[C@H](C)NC(=O)[C@H](Cc2cscn2)N(C)C(=O)[C@H](CCc2ccc(C(F)(F)F)c(Cl)c2)NC(=O)CN(C)C(=O)[C@H](CC2CCCCC2)N(C)C(=O)[C@@H]2CCN2C(=O)[C@H](C)N(C)C1=O` [Compound 805] ([NMeL]I[NMeA][Aze][NMeCha][Sar][hPhe(3-Cl-4-CF3)][NMeAla(4-thiazolyl)]A[NMeGly(cPent)][NMeD]-NMe2; lactam N-11), the half-inhibitory concentration (IC50) amounted to 38 nM. In the case of `CC[C@H](C)[C@@H]1NC(=O)[C@H](CCC(C)C)N(C)C(=O)C[C@@H](C(=O)N2CCC2)N(C)C(=O)[C@H](C2CCCC2)N(C)C(=O)C2(CCCC2)NC(=O)[C@@H]2CCCN2C(=O)[C@H](CCc2ccc(C(F)(F)F)c(Cl)c2)NC(=O)CN(C)C(=O)[C@H](CC2CCCCC2)N(C)C(=O)[C@@H]2CCN2C(=O)[C@H](C)N(C)C1=O` [Compound 806] ([NMehLeu]I[NMeA][Aze][NMeCha][Sar][hPhe(3-Cl-4-CF3)]P[Ac5c][NMeGly(cPent)][NMeD]-{Azetidin(1-yl)}; lactam N-11), the IC50 is 1.1 nM. The result for `CC[C@H](C)[C@@H]1NC(=O)[C@H](C)N(C)C(=O)C[C@@H](C(=O)N2CCCC2)NC(=O)[C@H](CC(C)C)N(C)C(=O)[C@H](Cc2ccccc2)N(C)C(=O)[C@H](CC(C)C)NC(=O)[C@H](CCc2ccc(C(F)(F)F)cc2)NC(=O)CN(C)C(=O)[C@H](Cc2ccc(Cl)cc2)N(C)C(=O)CN(C)C(=O)CNC1=O` [Compound 808] ([NMeA]IG[Sar][NMePhe(4-Cl)][Sar][hPhe(4-CF3)]L[NMeF][NMeL]D-Pyrrolidide; lactam N-11) reads 99 nM; that for `CC[C@H](C)[C@@H]1NC(=O)[C@H](CC(C)C)N(C)C(=O)C[C@@H](C(=O)N2CCCCC2)N(C)C(=O)[C@H](C2CCCCC2)N(C)C(=O)C2(CCCC2)NC(=O)[C@@H]2Cc3ccccc3N2C(=O)[C@H](CCc2ccc(C(F)(F)F)c(Cl)c2)NC(=O)CN(C)C(=O)[C@H](CC2CCCCC2)N(C)C(=O)[C@@H]2CCN2C(=O)[C@H](C)N(C)C1=O` [Compound 812] ([NMeL]I[NMeA][Aze][NMeCha][Sar][hPhe(3-Cl-4-CF3)][X22][Ac5c][NMeChg][NMeD]-Piperidide; lactam N-11), 36 nM; that for `CCCC[C@@H]1NC(=O)[C@H](Cc2cccc(I)c2)NC(=O)CN(C)C(=O)[C@H](Cc2ccc(Cl)cc2)N(C)C(=O)CN(C)C(=O)CN(C)C(=O)[C@H]([C@@H](C)CC)NC(=O)[C@H](CC(C)C)N(C)C(=O)C[C@@H](C(=O)N2CCCCC2)N(C)C(=O)[C@H](CC(C)C)NC(=O)[C@H](Cc2ccccc2C(F)(F)F)N(C)C1=O` [Compound 813] ([NMeL]I[Sar][Sar][NMePhe(4-Cl)][Sar][Phe(3-I)][Nle][NMePhe(2-CF3)]L[NMeD]-Piperidide; lactam N-11), 69 nM. Under `CCCOC[C@@H]1NC(=O)[C@H](CCN2CC(F)(F)C2)N(C)C(=O)[C@H](CCc2ccc(C(F)(F)F)c(Cl)c2)NC(=O)CN(C)C(=O)[C@H](CC2CCCCC2)N(C)C(=O)[C@@H]2CCN2C(=O)[C@H](C)N(C)C(=O)[C@H]([C@@H](C)CC)NC(=O)[C@H](CC(C)C)N(C)C(=O)C[C@@H](C(=O)N(C)C)N(C)C(=O)[C@H](C2CCCC2)N(C)C1=O` [Compound 817] ([NMeL]I[NMeA][Aze][NMeCha][Sar][hPhe(3-Cl-4-CF3)][NMeDab(N,N-(CH2CF2CH2))]S(Propyl)[NMeGly(cPent)][NMeD]-NMe2; lactam N-11) stands 15 nM; under `CCCC[C@@H]1NC(=O)[C@H](Cc2cccc(I)c2)NC(=O)CN(C)C(=O)[C@H](Cc2ccc(Cl)cc2)N(C)C(=O)CN(C)C(=O)CN(C)C(=O)[C@H]([C@@H](C)CC)NC(=O)[C@H](CC(C)C)N(C)C(=O)C[C@@H](C(=O)N2CCCCC2)N(C)C(=O)[C@H](CC(C)C)NC(=O)[C@H](Cc2ccc(OC(F)(F)F)cc2)N(C)C1=O` [Compound 819] ([NMeL]I[Sar][Sar][NMePhe(4-Cl)][Sar][Phe(3-I)][Nle][NMeY](CF3)L[NMeD]-Piperidide; lactam N-11), 53 nM.

Take `CC[C@H](C)[C@@H]1NC(=O)[C@H](C)N(C)C(=O)C[C@@H](C(=O)N2CCCCC2)N(C)C(=O)[C@H](C(C)C)N(C)C(=O)C2(CCCC2)NC(=O)[C@H](Cc2ccc(F)cc2)N(C)C(=O)[C@H](CCc2ccc(C(F)(F)F)c(Cl)c2)NC(=O)CN(C)C(=O)[C@H](CC2CCCCC2)N(C)C(=O)CN(C)C(=O)CN(C)C1=O` [Compound 821] ([NMeA]I[Sar][Sar][NMeCha][Sar][hPhe(3-Cl-4-CF3)][NMePhe(4-F)][Ac5c][NMeV][NMeD]-Piperidide; lactam N-11): the IC50 is 12 nM.

For orientation: IC50 means the point on the concentration scale where inhibition reaches its midpoint.
